Among the data in patent publication US20240360154A1, “AROYL SUBSTITUTED TRICYCLIC COMPOUND, PREPARATION METHOD THEREFOR AND USE THEREOF” (GENFLEET THERAPEUTICS (SHANGHAI) INC., priority 2020, published 2024) are IC50 values, retold here.

Structures are written as SMILES.

For one experiment, the target named is BTK (C481S) (Homo sapiens (Human), UniProt Q06187, C481S). The experiment in a line: BTK C481S enzyme experiment (ADP-Glo kinase assay). In kind it is biochemical. The conditions noted are these: 10 nM BTK C481S, ATP 125 μM, Poly(Glu4, Tyr1), 90 minutes at 20° C. The method, then: (§1) A 3-fold gradient concentration stock solution of 1000× compound was prepared using DMSO and diluted 100-fold to 10× compound stock solution using reaction buffer (50 mM HEPES, pH 7.5, 0.0015% Briji-35, 2 mM DTT, 10 mM MgCl2), and the 10× compound stock solution was transferred to a 384-well plate. Enzyme reactions were set up with BTK Kinase Enzyme System (Promega Catalog #V2941) or BTK (C481S) Kinase Enzyme System (Promega Catalog #VA7033). First, a 2× enzyme solution containing 10 nM BTK or 10 nM BTK C481S was prepared with reaction buffer and added to the plate, and incubated with the compound for 10 minutes. […] Finally, the kinase activity was detected according to the experimental steps provided by ADP-Glo™ kinase Assay Kit (Promega, #V9101), and finally the luminescence chemiluminescence value was read. DMSO was used as the maximum signal value, and adding no enzyme was used as the minimum signal value. The inhibition rate of the compound (%)=(maximum signal value−compound signal value)/(maximum signal value−minimum signal value)×100% was calculated. The compound gradient dilution concentration and the corresponding inhibition rate of the enzyme activity were fit by using XLFit four-parameter method, and IC50 value was calculated.
In general terms: ADP-Glo first removes unused ATP, then detects ADP through luciferase.

The target in the next experiment is BTK (Homo sapiens (Human), UniProt Q06187). The experiment is described as follows: BTK enzyme experiment (ADP-Glo kinase assay). The conditions noted are these: 10 nM BTK, ATP 125 μM, Poly(Glu4, Tyr1), 90 minutes at 20° C.; read-out: BTK(WT) IC50. Type of experiment: biochemical. The protocol:
as §1

Usually IC50 stands for the point on the concentration scale where inhibition reaches its midpoint.

Chain of BTK (C481S) (Q06187 whole entry C481S): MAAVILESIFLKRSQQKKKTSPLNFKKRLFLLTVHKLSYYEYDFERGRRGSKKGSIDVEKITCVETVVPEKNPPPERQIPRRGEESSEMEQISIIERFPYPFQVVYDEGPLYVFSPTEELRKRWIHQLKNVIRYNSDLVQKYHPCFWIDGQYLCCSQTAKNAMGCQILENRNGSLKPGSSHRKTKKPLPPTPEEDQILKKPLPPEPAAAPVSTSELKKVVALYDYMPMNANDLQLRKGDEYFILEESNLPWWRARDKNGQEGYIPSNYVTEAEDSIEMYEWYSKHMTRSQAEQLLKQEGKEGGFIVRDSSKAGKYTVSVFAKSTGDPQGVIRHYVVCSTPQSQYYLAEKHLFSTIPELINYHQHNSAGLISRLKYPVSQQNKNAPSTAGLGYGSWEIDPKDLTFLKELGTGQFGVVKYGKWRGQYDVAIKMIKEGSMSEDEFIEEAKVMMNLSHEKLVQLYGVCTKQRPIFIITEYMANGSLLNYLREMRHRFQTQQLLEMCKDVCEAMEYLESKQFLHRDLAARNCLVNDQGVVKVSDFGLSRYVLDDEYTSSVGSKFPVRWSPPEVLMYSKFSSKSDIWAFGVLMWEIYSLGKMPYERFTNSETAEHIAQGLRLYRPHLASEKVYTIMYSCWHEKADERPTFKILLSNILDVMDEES
Chain of BTK (Q06187 whole entry): as the sequence (Q06187 whole entry C481S) above, with S481C counted along it

For the compound `COC[C@]1(C)Nc2c(cnc3[nH]cc(C(=O)c4ccc(OC)cc4Cl)c23)NC1=O` [Z113, (S)-9-(2-chloro-4-methoxybenzoyl)-2-(methoxymethyl)-2-methyl-1,2,4,7-tetrahydro-3H-pyrrolo[3′,2′:5,6]pyrido[3,4-b]pyrazin-3-one], the half-inhibitory concentration (IC50) worked out at 61.1 nM against BTK (C481S) and 61.8 nM on BTK.
On the same counts, the results for `CN1C(=O)C2(CCOCC2)Nc2c1cnc1[nH]cc(C(=O)c3ccc(Oc4ccccc4)cc3Cl)c21` [Z22, 9′-(2-chloro-4-phenoxybenzoyl)-4′-methyl-2,3,4′,5,6,7′-hexahydrospiro[pyran-4,2′-pyrrolo[3′,2′:5,6]pyrido[3,4-b]pyrazin]-3′(1′H)-one] are 7.2 nM and 27.1 nM.
On to `COC[C@]1(C)Nc2c(cnc3[nH]cc(C(=O)c4ccc(Oc5cc(C)cc(C)n5)cc4F)c23)NC1=O` [Z189-1, (S)-9-(4-((4,6-dimethylpyridin-2-yl)oxy)-2-fluorobenzoyl)-2-(methoxymethyl)-2-methyl-1,2,4,7-tetrahydro-3H-pyrrolo[3′,2′:5,6]pyrido[3,4-b]pyrazin-3-one], for which the concentration for half-maximal inhibition (IC50) on BTK (C481S) was found to be 60.3 nM; at BTK, 50.4 nM.
On the same counts, the results for `COC[C@]1(C)Nc2c(cnc3[nH]cc(C(=O)c4ccc(Oc5ccccc5)cc4Cl)c23)NC1=S` [Z202, (S)-(2-chloro-4-phenoxyphenyl)(2-(methoxymethyl)-2-methyl-3-thioxo-2,3,4,7-tetrahydro-1H-pyrrolo[3′,2′:5,6]pyrido[3,4-b]pyrazin-9-yl)methanone] are 27.8 nM and 23.8 nM.
On the same counts, the results for `COCC1(C)Nc2c(cnc3[nH]cc(C(=O)c4ccc(Oc5ccccc5)cc4Cl)c23)N(C)C1=O` (single isomer, unassigned) [Z52-2, 9-(2-chloro-4-phenoxybenzoyl)-2-(methoxymethyl)-2,4-dimethyl-1,2,4,7-tetrahydro-3H-pyrrolo[3′,2′:5,6]pyrido[3,4-b]pyrazin-3-one] are 92.3 nM and 136 nM.
Regarding `COC[C@]1(C)Nc2c(cnc3[nH]cc(C(=O)c4ccc(Oc5cc(C)nc(Cl)c5)cc4Cl)c23)NC1=O` [Z135, (S)-9-(2-chloro-4-((2-chloro-6-methylpyridin-4-yl)oxy)benzoyl)-2-(methoxymethyl)-2-methyl-1,2,4,7-tetrahydro-3H-pyrrolo[3′,2′:5,6]pyrido[3,4-b]pyrazin-3-one], the concentration for half-maximal inhibition (IC50) against BTK (C481S) is 88.8 nM; on BTK it was 58.9 nM.
Turning to `COC[C@]1(C)Nc2c(cnc3[nH]cc(C(=O)c4ccccc4)c23)NC1=O` [Z89, (S)-9-benzoyl-2-(methoxymethyl)-2-methyl-1,2,4,7-tetrahydro-3H-pyrrolo[3′,2′:5,6]pyrido[3,4-b]pyrazin-3-one], the IC50 against BTK (C481S) was 7.5 nM; on BTK, 23.4 nM.
For `CN1CCC2(CC1)Nc1c(cnc3[nH]cc(C(=O)c4ccc(Oc5ccccc5)cc4Cl)c13)NC2=O` [Z17, 9′-(2-chloro-4-phenoxybenzoyl)-1-methyl-4′,7′-dihydrospiro[piperidine-4,2′-pyrrolo[3′,2′:5,6]pyrido[3,4-b]pyrazin]-3′(1′H)-one] the same measures were 273 nM and 345 nM.
On the same counts, the results for `COCC1(C)Nc2c(cnc3[nH]cc(C(=O)c4ccc(Oc5cc(C)ccn5)cc4F)c23)NC1=O` (single isomer, unassigned) [Z69-2, 9-(2-fluoro-4-((4-methylpyridin-2-yl)oxy)benzoyl)-2-(methoxymethyl)-2-methyl-1,2,4,7-tetrahydro-3H-pyrrolo[3′,2′:5,6]pyrido[3,4-b]pyrazin-3-one] are 28.3 nM and 17.5 nM.
With `COC[C@]1(C)Nc2c(cnc3[nH]cc(C(=O)c4ccc(Oc5ccccc5)cc4)c23)NC1=O` [Z125-1, (S)-2-(methoxymethyl)-2-methyl-9-(4-phenoxybenzoyl)-1,2,4,7-tetrahydro-3H-pyrrolo[3′,2′:5,6]pyrido[3,4-b]pyrazin-3-one], the IC50 against BTK (C481S) worked out at 29.1 nM; at BTK, 28.2 nM.
